Experimental data reported in US8796300B2, “Therapeutic compounds” (Rutgers, the State University of New Jersey, priority 2009, dated 2014).

Assays:
[1] = tested on: KB3-1 human epidermoid carcinoma tumor cells; assay: MTT cytotoxicity assay (Test B); format: cell-based; details: KB 3-1, 96 h, cells cultured 4 days
Excerpt: (§1) Test B. Evaluation of G-Quadruplex Stabilizers using the MTT Assay.
(§2) Cell lines are selected based upon one or more factors including data on their relative telomerase activity, varied organ sites, available comparative data, and their ability to form solid tumors in athymic nude mice. The advantage of an MTT assay is that the cytotoxic/cytostatic activities can be readily determined.

[2] = tested on: human lymphoblastoma cell line RPMI 8402; assay: MTT cytotoxicity assay (Test B); format: cell-based; details: RPMI 8402, 96 h, cells cultured 4 days
Excerpt: as §1, §2

telomerase = details: read-out: telomerase inhibitory activity IC50; cited from earlier work
SK-N-AS = details: human neuroblastoma cell line; read-out: cytotoxicity IC50 SK-N-AS; cited from earlier work
LAN5 = details: human neuroblastoma cell line; read-out: cytotoxicity IC50 LAN5; cited from earlier work
WAC2 = details: human neuroblastoma cell line; read-out: cytotoxicity IC50 WAC2; cited from earlier work
LAN1 = details: human neuroblastoma cell line; read-out: cytotoxicity IC50 LAN1; cited from earlier work
MiaPaCa = details: human pancreatic carcinoma; read-out: cytotoxicity IC50 MiaPaCa; cited from earlier work
[3] = tested on: HBC-4, BSY-1, HBC-5, MCF-7, and MDA-MB-231; details: range over HBC-4, BSY-1, HBC-5, MCF-7, MDA-MB-231; read-out: GI50 against human breast cancer cell lines; cited from earlier work
[4] = tested on: Human Telomeric G-Quadruplex DNA d(T2AG3)4; assay: UV melting, thermal stabilization of G-quadruplex DNA (Test A); format: binding; details: pH 7.5, 50 mM K+; Tm of the drug-DNA complex minus that of the DNA alone; absorbance at 295 nm
Excerpt: (§3) Test A. Selective Stabilization of G-Quadruplex DNA Analyses can be performed to determine the ability of the compounds to selectively bind and thermally stabilize quadruplex relative to duplex DNA. Toward this end, the UV absorbances of the DNA molecules are monitored as a function of temperature in the absence and presence of compound. The melting of duplex DNA is generally associated with a hyperchromic shift at 260 nm, while the melting of quadruplex DNA is associated with a hypochromic shift at 295 nm. Thus, the temperature-dependent absorbances of duplex DNA are monitored at 260 nm, with the corresponding quadruplex absorbances being monitored at 295 nm. Salmon testes DNA can be used as a representative model of duplex DNA and d([…])4 can be used as a representative model of quadruplex DNA. All UV melting studies are conducted at physiological pH (7.4) in the presence of potassium ions at physiologically relevant concentrations. Representative compounds of formula I (compounds 6, 32, and 33) were evaluated for their abilities to selectively bind and stabilize G-quadruplex relative to duplex DNA. […] By contrast, none of the compounds exert any impact on the thermal stability of the DNA duplex (ΔTm=0° C. for all three compounds).

Salmon Testes Duplex DNA = assay: UV melting, thermal stabilization of duplex DNA (Test A); format: binding; details: pH 7.5, 50 mM K+; Tm of the drug-DNA complex minus that of the DNA alone; absorbance at 260 nm
Excerpt: as §3

[5] = tested on: MDA-MB-435 human tumor xenografts (human melanoma cells); assay: Human tumor xenograft athymic nude mouse model (Test C); format: in vivo, female NCR/NU NU mice; details: ip injection; athymic nude mice; tumor volume
Method: Test C. Evaluation of G-Quadruplex Stabilizers in the Human Tumor Xenograft Athymic Nude Mouse Model.
Compound 33 inhibited the growth of MDA-MD-435 human tumor xenografts (developed from human melanoma cells) in vivo by more than 50% when administered by ip injection. Bioassays were performed using female NCR/NU NU mice of approximately 9 weeks of age as obtained from Taconic Farms, Inc. (Germantown, N.Y., USA). Mice were housed 4 per cage in laminar flow HEPA filtered microisolator caging (Allentown Caging Equipment Co., Allentown, N.J., USA). Mice were fed Purina autoclavable breeder chow #5021 and given drinking water, purified by reverse-osmosis, ad libitum. Five days after arrival within the animal facility, the mice were inoculated on the right flank with 1.5×10^6 MDA-MB-435 tumor cells in 0.1 mL of RPMI 1640 Media by sc injection (25 gauge needle×⅝″). The MDA-MB-435 cells were grown in 75 cm^2 flasks using RPMI 1640 Media and 10% fetal bovine serum. Tumors were of sufficient size at 19-20 days after inoculation. Tumor-bearing mice were evenly matched in each experimental group based on tumor volume. Tumor volume was calculated by measuring the tumor with a microcaliper. The length (l) is the maximum two dimensional distance of the tumor and the width (w) is the maximum distance perpendicular to this length measured in mm. Tumor volume was calculated using the formula (l*w^2)/2.

O=C1NCc2cc(CCNC(=O)C(F)(F)F)cc(c2)CNC(=O)c2coc(n2)-c2coc(n2)-c2cccc(n2)-c2nc(co2)-c2nc1co2 [Compound 31]
IC50 [1]: 70 nM | IC50 [2]: 170 nM | melting point: 290 °C (dec.)

NCCCOc1cc2nc(c1)-c1nc(co1)-c1nc(co1)C(=O)NCc1cccc(c1)CNC(=O)c1coc(n1)-c1coc-2n1 [Compound 46]
IC50 [1]: 3000 nM | IC50 [2]: 5000 nM | melting point: 237 to 239 °C (dec.)

O=C(NCCc1cc2cc(c1)CNC(=O)c1coc(n1)-c1coc(n1)-c1cccc(n1)-c1nc(co1)-c1nc(co1)C(=O)NC2)OCc1ccccc1 [Compound 30]
IC50 [1]: 120 nM | IC50 [2]: 120 nM | melting point: 196 to 198 °C

Cc1oc2nc1-c1nc(co1)-c1nc(co1)-c1nc(co1)-c1nc(co1)-c1nc(co1)C1=NC(CS1)c1nc-2c(C)o1 (stereo not shown) [Telomestatin]
IC50 (telomerase): 5 nM | IC50 (SK-N-AS): 800 nM | IC50 (LAN5): 2500 nM | IC50 (WAC2): 3.2 µM | IC50 (LAN1): 4 µM | IC50 (MiaPaCa): 500 nM

CC[C@H](C)[C@@H]1NC(=O)c2nc(oc2-c2ccccc2)-c2csc(n2)-c2coc(n2)-c2coc(n2)-c2coc(n2)CNC(=O)[C@@H](C(C)C)NC1=O [YM-216391]
GI50 [3]: 15 to 33 nM

O=C1NCc2cc(CCNC(=O)C(F)(F)F)cc(c2)CNC(=O)c2coc(n2)-c2coc(n2)-c2cc(Br)cc(n2)-c2nc(co2)-c2nc1co2 [Compound 36]
IC50 [1]: 4000 nM | IC50 [2]: > 10000 nM | melting point: 305 to 307 °C (dec.)

O=C1NCc2cccc(c2)CNC(=O)c2coc(n2)-c2coc(n2)-c2cc(Br)cc(n2)-c2nc(co2)-c2nc1co2 [Compound 28]
IC50 [1]: 150 nM | IC50 [2]: 300 nM | melting point: 211 to 213 °C

O=C1NCc2cccc(c2)CNC(=O)c2coc(n2)-c2csc(n2)-c2cccc(n2)-c2nc(cs2)-c2nc1co2 [Compound 22]
IC50 [1]: > 10000 nM | IC50 [2]: > 10000 nM | melting point: 245 °C

O=C1NCc2cccc(n2)CNC(=O)c2coc(n2)-c2coc(n2)-c2cccc(n2)-c2nc(co2)-c2nc1co2 [Compound 7]
IC50 [1]: > 5000 nM | IC50 [2]: > 5000 nM | melting point: 330 °C (dec.)

NCCc1cc2cc(c1)CNC(=O)c1coc(n1)-c1coc(n1)-c1cccc(n1)-c1nc(co1)-c1nc(co1)C(=O)NC2 [Compound 32]
IC50 [1]: 30 nM | IC50 [2]: 90 nM | melting point: 277 to 280 °C (dec.)

CN(C)CCc1cc2cc(c1)CNC(=O)c1coc(n1)-c1coc(n1)-c1cccc(c1)-c1nc(co1)-c1nc(co1)C(=O)NC2 [Compound 61]
IC50 [1]: 400 nM | IC50 [2]: 2000 nM

CC(=O)NCCCOc1cc2nc(c1)-c1nc(co1)-c1nc(co1)C(=O)NCc1cccc(c1)CNC(=O)c1coc(n1)-c1coc-2n1 [Compound 47]
IC50 [1]: 10000 nM | IC50 [2]: > 10000 nM

O=C1NCc2cc(Br)cc(c2)CNC(=O)c2coc(n2)-c2coc(n2)-c2cc(Br)cc(n2)-c2nc(co2)-c2nc1co2 [Compound 34]
IC50 [1]: > 10000 nM | IC50 [2]: > 10000 nM | melting point: 250 °C (dec.)

O=C1NCCNCCNC(=O)c2coc(n2)-c2coc(n2)-c2cccc(n2)-c2nc(co2)-c2nc1co2 [Compound 8]
IC50 [1]: 4000 nM | IC50 [2]: > 10000 nM | melting point: 276 °C (dec.)

O=C1NCc2cccc(c2)CNC(=O)c2coc(n2)-c2coc(n2)-c2cc(OCCCN3C(=O)c4ccccc4C3=O)cc(n2)-c2nc(co2)-c2nc1co2 [Compound 43]
IC50 [1]: 400 nM | IC50 [2]: 4500 nM | melting point: 249 to 252 °C (dec.)

CN(C)c1cc2cc(c1)CNC(=O)c1coc(n1)-c1coc(n1)-c1cccc(n1)-c1nc(co1)-c1nc(co1)C(=O)NC2 [Compound 48]
IC50 [1]: 30 nM | IC50 [2]: 60 nM

O=C1NCc2cccc(c2)CNC(=O)c2coc(n2)-c2coc(n2)-c2cccc(n2)-c2nc(co2)-c2nc1co2 [Compound 6]
Human Telomeric G-Quadruplex DNA ΔTm [4]: 20.5 °C | Salmon Testes Duplex DNA ΔTm (Salmon Testes Duplex DNA): 0 °C | IC50 [1]: 1200 nM | IC50 [2]: 1050 nM | melting point: 320 to 324 °C (dec.)

O=C(NCCc1cc2cc(c1)CNC(=O)c1coc(n1)-c1coc(n1)-c1cc(OCCCN3C(=O)c4ccccc4C3=O)cc(n1)-c1nc(co1)-c1nc(co1)C(=O)NC2)OCc1ccccc1 [Compound 45]
IC50 [1]: > 10000 nM | IC50 [2]: > 10000 nM | melting point: 167 to 170 °C

O=C1NCc2cc(Br)cc(c2)CNC(=O)c2coc(n2)-c2coc(n2)-c2cc(OCCCN3C(=O)c4ccccc4C3=O)cc(n2)-c2nc(co2)-c2nc1co2 [Compound 44]
IC50 [1]: 1000 nM | IC50 [2]: 1000 nM | melting point: 289 to 290 °C (dec.)

CN(C)CCc1oc2nc1C(=O)NCc1cccc(c1)CNC(=O)c1nc(oc1CCN(C)C)-c1coc(n1)-c1cccc(n1)-c1nc-2co1 [Compound 78]
IC50 [1]: 100 nM | IC50 [2]: 200 nM

O=C1NCc2cccc(c2)CNC(=O)c2coc(n2)-c2csc(n2)-c2cccc(n2)-c2nc(co2)-c2nc1co2 [Compound 14]
IC50 [1]: 260 nM | IC50 [2]: 1000 nM | melting point: 274 to 275 °C (dec.)

O=C1NCc2cc(Br)cc(c2)CNC(=O)c2coc(n2)-c2coc(n2)-c2cccc(n2)-c2nc(co2)-c2nc1co2 [Compound 29]
IC50 [1]: 60 nM | IC50 [2]: 300 nM | melting point: 248 to 250 °C

O=C(NCCc1cc2cc(c1)CNC(=O)c1coc(n1)-c1coc(n1)-c1cc(Br)cc(n1)-c1nc(co1)-c1nc(co1)C(=O)NC2)OCc1ccccc1 [Compound 35]
IC50 [1]: 600 nM | IC50 [2]: 1000 nM | melting point: 204 to 205 °C

CC(C)(C)OC(=O)NCCc1cc2cc(c1)CNC(=O)c1coc(n1)-c1coc(n1)-c1cccc(c1)-c1nc(co1)-c1nc(co1)C(=O)NC2 [Compound 59]
IC50 [1]: 3100 nM | IC50 [2]: 3600 nM

CN(C)CCc1cc2cc(c1)CNC(=O)c1coc(n1)-c1coc(n1)-c1cccc(n1)-c1nc(co1)-c1nc(co1)C(=O)NC2 [Compound 33]
Human Telomeric G-Quadruplex DNA ΔTm [4]: 31.5 °C | Salmon Testes Duplex DNA ΔTm (Salmon Testes Duplex DNA): 0 °C | IC50 [1]: 40 nM | IC50 [2]: 180 nM | inhibition of growth of human tumor xenografts in vivo [5]: more than 50% | melting point: 295 °C (dec.)
